Data from patent publication US4986988A, “Isolation and structural elucidation of the cytostatic linear depsipeptides dolastatin 13 and dehydrodolastatin 13” (priority 1989, dated 1991).
Converted amounts (≈) assume the structure as drawn. Like-named read-outs stand apart in the source and are kept apart here.

System: P388 lymphocytic leukemia (PS System) cell line
Test: P388 lymphocytic leukemia in vitro cell line growth inhibition (PS bioassay)
Assay type: cell-based, murine
Procedure: Because of the dolastatin's potency, the sea hare seems to require only vanishingly small quantities (about 1 mg each from 100 kg), making isolation and structural elucidation of these peptides exceptionally challenging. Later another substance was isolated and determined to be a unique linear pentapeptide and was denominated "dolastatin 10".

What does the source list for C/C=C1/NC(=O)C(NC(=O)C(NC(=O)C(CO)OC)C(C)C)C(C)OC(=O)C(C(C)C)NC(=O)C(Cc2ccccc2)N(C)C(=O)C(Cc2ccccc2)N2C(=O)C(CCC2O)NC1=O (centres unmarked) [dolastatin 13]?
ED50: 1.3 ng/mL (≈ 1.43 nM); ED50 (listed as Dolastatin 13): 13 ng/mL (≈ 14.3 nM)
